Laboratory results taken from the Deep4Chem optical property database.
One block for each compound: values may come before it.

Experiment: photoluminescence quantum yield (fraction); solvent given as SMILES

Structure (SMILES): CCCCc1ccc(-n2c3c(c4c2c2c(n4-c4ccc(CCCC)cc4)-c4cc(F)ccc4NB2c2ccccc2)B(c2ccccc2)Nc2ccc(F)cc2-3)cc1
photoluminescence quantum yield (in Cc1ccccc1): 0.64

Structure (SMILES): Cn1ccc(-n2cncn2)nc1=O
photoluminescence quantum yield (in O): 0.114

Structure (SMILES): CCOC(=O)CSc1nc(C)c(CC)c(C#N)c1C#N
photoluminescence quantum yield (in c1ccccc1): 0.034

Structure (SMILES): Nc1cc2nc3cc(Cl)c(Cl)cc3nc2cc1N
photoluminescence quantum yield (in CCO): 0.1

Structure (SMILES): COCCOCCOCCNc1cc2c3c(c(NCCOCCOCCOC)cc4c3c1C(=O)N(CCOCCOCCOC)C4=O)C(=O)N(CCOCCOCCOC)C2=O
photoluminescence quantum yield (in CO): 0.33 | photoluminescence quantum yield (in ClC(Cl)Cl): 0.56 | photoluminescence quantum yield (in O): 0.039

Structure (SMILES): CCOC(=O)/N=c1/oc2cc(N(CC)CC)ccc2cc1C#N
photoluminescence quantum yield (in ClCCl): 0.85

Structure (SMILES): CCCC1=Cc2nc1ccc1[nH]c(cc1CCO)c1nc(ccc3[nH]c2cc3CCC)C(CCO)=C1
photoluminescence quantum yield (in Cc1ccccc1): 0.4

Structure (SMILES): CCC1=C(C)C(=O)n2c1cc1c(C)c(CC(=O)OC)c(C)n1c2=O
photoluminescence quantum yield (in CO): 0.94 | photoluminescence quantum yield (in CS(C)=O): 1 | photoluminescence quantum yield (in ClC(Cl)Cl): 1 | photoluminescence quantum yield (in c1ccccc1): 1

Structure (SMILES): C[Si](C)(C)C#CC1=CC2=c3cc(C#C[Si](C)(C)C)c4nc(C(F)(F)C(F)(F)C(F)(F)F)nc5c(C#C[Si](C)(C)C)cc(c3c54)C3=CC(C#C[Si](C)(C)C)=C4N=C(C(F)(F)C(F)(F)C(F)(F)F)N=C1C4C32 (stereo unspecified)
photoluminescence quantum yield (in C1CCOC1): 0.45

Structure (SMILES): CCN(CC)c1ccc(-c2c3c(n4ccc(C(C)=O)cc24)C(=O)N(CCCNC(=O)OC(C)(C)C)C3)cc1
photoluminescence quantum yield (in CO): 0

Structure (SMILES): O=C1c2ccc3c4c(NC5CCCCC5)cc5c6c(ccc(c7c(NC8CCCCC8)cc(c2c37)C(=O)N1C1CCCCC1)c64)C(=O)N(C1CCCCC1)C5=O
photoluminescence quantum yield (in ClC(Cl)Cl): 0.008

Structure (SMILES): COc1ccc(OC)c(C=O)c1
photoluminescence quantum yield (in C1CCOC1): 0.0001 | photoluminescence quantum yield (in C1COCCO1): 0.0001 | photoluminescence quantum yield (in CC#N): 0.0001 | photoluminescence quantum yield (in CC(C)=O): 0.01 | photoluminescence quantum yield (in CCCO): 0.31 | photoluminescence quantum yield (in CCO): 0.26 | photoluminescence quantum yield (in CN(C)C=O): 0.0001 | photoluminescence quantum yield (in CN(C)P(=O)(N(C)C)N(C)C): 0.0001 | photoluminescence quantum yield (in CNC=O): 0.11 | photoluminescence quantum yield (in CO): 0.22 | photoluminescence quantum yield (in CS(C)=O): 0.04 | photoluminescence quantum yield (in ClC(Cl)Cl): 0.01 | photoluminescence quantum yield (in NC=O): 0.48

Structure (SMILES): CCCCCCCCCCCCC1(CCCCCCCCCCCC)c2cc(-c3ccc(C=C4C(=O)c5ccccc5C4=O)cc3)ccc2-c2ccc(-c3ccc(C=C4C(=O)c5ccccc5C4=O)cc3)cc21
photoluminescence quantum yield (in C1CCOC1): 0.046 | photoluminescence quantum yield (in CC(C)=O): 0.121 | photoluminescence quantum yield (in CCCCCC): 0.008 | photoluminescence quantum yield (in CS(C)=O): 0.228 | photoluminescence quantum yield (in Cc1ccccc1): 0.012 | photoluminescence quantum yield (in ClC(Cl)Cl): 0.013

Structure (SMILES): CC(=O)c1c2c(cc3ccc(N(C)C)cc13)CCC2
photoluminescence quantum yield (in C1CCCCC1): 0.45 | photoluminescence quantum yield (in C1CCOC1): 0.75 | photoluminescence quantum yield (in C1COCCO1): 0.46 | photoluminescence quantum yield (in CC#N): 0.99 | photoluminescence quantum yield (in CCO): 0.05 | photoluminescence quantum yield (in CS(C)=O): 0.85 | photoluminescence quantum yield (in Cc1ccccc1): 0.62 | photoluminescence quantum yield (in ClC(Cl)Cl): 0.77 | photoluminescence quantum yield (in ClCCl): 0.99

Structure (SMILES): Cc1c2ccc3c(C)[n+](C)ccc3c2cc[n+]1C
photoluminescence quantum yield (in CC#N): 0.38

Structure (SMILES): c1ccc2c(c1)Sc1ccccc1N2c1ccc2c(ccc3nc4ccc5cc(N6c7ccccc7Sc7ccccc76)ccc5c4nc32)c1
photoluminescence quantum yield (in C1CCCCC1): 0.06 | photoluminescence quantum yield (in Cc1ccccc1): 0.07

Structure (SMILES): O=S(=O)(c1ccc(-c2ccc3c(c2)c2ccccc2n3-c2ccccc2)cc1)c1ccc(-c2ccc3c(c2)c2ccccc2n3-c2ccccc2)cc1
photoluminescence quantum yield (in Cc1ccccc1): 1

Structure (SMILES): COc1cc2c(cc1-c1ccccc1)Cc1c3c(c4c(c1-2)-c1cc(OC)c(-c2ccccc2)cc1C4)C(=O)N(CCC(C)C)C3=O
photoluminescence quantum yield (in C1CCOC1): 0.53 | photoluminescence quantum yield (in CC#N): 0.46 | photoluminescence quantum yield (in CC(C)=O): 0.38 | photoluminescence quantum yield (in CCOC(C)=O): 0.61 | photoluminescence quantum yield (in CS(C)=O): 0.47 | photoluminescence quantum yield (in Cc1ccccc1): 0.48 | photoluminescence quantum yield (in ClC(Cl)Cl): 0.64 | photoluminescence quantum yield (in ClCCl): 0.63

More lines, now with the values ahead:

photoluminescence quantum yield (in CC(=O)N(C)C): 0.024
Structure (SMILES): CC(C)(C)c1cc(/C2=C3\C=CC(=N3)/C(c3ccc([N+](=O)[O-])cc3)=c3/cc/c([nH]3)=C(\c3ccc([N+](=O)[O-])cc3)C3=N/C(=C(/c4cc(C(C)(C)C)cc(C(C)(C)C)c4)c4cc2c[nH]4)C=C3)cc(C(C)(C)C)c1

photoluminescence quantum yield (in ClCCl): 0.06
Structure (SMILES): CC(C)[Si](C#Cc1c2cc3ccccc3cc2c(C#Cc2ccc(C(F)(F)F)cc2)c2cc3ccccc3cc12)(C(C)C)C(C)C

photoluminescence quantum yield (in ClCCl): 0.87
Structure (SMILES): CC[C@H](C)COc1ccc(C2=C3C(C)=CC(C)=[N+]3[B-](F)(F)n3c(C)cc(C)c32)cc1

photoluminescence quantum yield (in CS(C)=O): 0.2
Structure (SMILES): O=c1oc2ccc(Cl)cc2cc1-c1cc2cc(Cl)ccc2o1

photoluminescence quantum yield (in CC#N): 0.064
Structure (SMILES): COc1ccc(-n2nc(C#N)c(N3CCN(c4ccccn4)CC3)n2)cc1

photoluminescence quantum yield (in C1CCOC1): 0.499
Structure (SMILES): CCCCCOc1cc2oc(=O)c3c4ccc(C#N)cc4c4ccc5cccc6c(c1)c2c3c4c56

photoluminescence quantum yield (in ClCCl): 0.4
Structure (SMILES): COc1ccc2c(c1)-c1cc3c(cc1[Si]2(c1ccccc1)c1ccccc1)-c1ccccc1[Si]3(c1ccccc1)c1ccccc1

photoluminescence quantum yield (in ClCCl): 0.02
Structure (SMILES): O=C1c2ccccc2C2=Nc3cccc4cccc(c34)N12

photoluminescence quantum yield (in ClCCl): 0.54
Structure (SMILES): CN(C)c1ccc(C2=C3C=C(c4ccc(C=O)cc4)S[C@]34c3ccccc3[C@H]2c2ccccc24)cc1

photoluminescence quantum yield (in CC#N): 0.13
Structure (SMILES): O=C(O)c1ccc(-c2nc(-c3ccccc3)c3ccccn23)cc1

photoluminescence quantum yield (in CCCCC(CC)n1c2ccc(-n3c4ccccc4c4ccccc43)cc2c2cc(-n3c4ccccc4c4ccccc43)ccc21): 0.109 | photoluminescence quantum yield (in c1cc(-n2c3ccccc3c3ccccc32)cc(-n2c3ccccc3c3ccccc32)c1): 0.218
Structure (SMILES): O=S(=O)(c1cccc(-n2c3ccccc3c3ccccc32)c1)c1cccc(-n2c3ccccc3c3ccccc32)c1

photoluminescence quantum yield (in ClC(Cl)Cl): 0.026
Structure (SMILES): CCCCCCn1c2cc(/C=C(\C#N)c3ccccc3)ccc2c2ccc(/C=C(\C#N)c3ccccc3)cc21

photoluminescence quantum yield (in ClCCl): 0.609
Structure (SMILES): CC(C)(C)c1cc(-c2ccc3c(-c4cc(C(C)(C)C)cc(C(C)(C)C)c4)cc4c5cc(-c6cc(C(C)(C)C)cc(C(C)(C)C)c6)ccc5c(-c5cc(C(C)(C)C)cc(C(C)(C)C)c5)cc4c3c2)cc(C(C)(C)C)c1

photoluminescence quantum yield (in CCO): 0.36 | photoluminescence quantum yield (in ClCCl): 0.92
Structure (SMILES): COc1ccccc1-c1c2ccc(=[N+]3CCCCC3)cc-2oc2cc(N3CCCCC3)ccc12

photoluminescence quantum yield (in ClC(Cl)Cl): 0.074
Structure (SMILES): c1ccc2c(c1)oc1nc3oc4ccc(-n5c6ccccc6c6ccccc65)cc4c3cc12

photoluminescence quantum yield (in CC#N): 0.24
Structure (SMILES): Fc1ccc(/C=C/c2nc3c4ccccc4c4ccccc4c3o2)cc1

photoluminescence quantum yield (in ClCCl): 0.52
Structure (SMILES): COc1ccc2cc(/C=C/c3nc(/C=C/c4ccc(N(C)C)cc4)cc(/C=C/c4ccc(N(C)C)cc4)n3)ccc2c1

photoluminescence quantum yield (in CS(C)=O): 0.31 | photoluminescence quantum yield (in ClCCl): 0.008
Structure (SMILES): CC(C)(C)OC(=O)COc1ccc2c(c1)oc(=O)c1c(=O)oc3ccccc3c12

photoluminescence quantum yield (in C1CCOC1): 0.44
Structure (SMILES): CC(C)(C)c1ccc(C2=Cc3cc4c(cc3P2(=O)c2ccccc2)C=C(c2ccc(C(C)(C)C)cc2)P4(=O)c2ccccc2)cc1 (stereo unspecified)

photoluminescence quantum yield (in C1COCCO1): 0.466 | photoluminescence quantum yield (in CC#N): 0.048 | photoluminescence quantum yield (in CCO): 0.073 | photoluminescence quantum yield (in CCOC(C)=O): 0.186 | photoluminescence quantum yield (in O): 0.0069
Structure (SMILES): CN1C(=O)/C(=C/c2ccncc2)N=C1c1ccccc1

photoluminescence quantum yield (in CC#N): 0.069
Structure (SMILES): Oc1ccccc1/C=N/C1CCCCC1/N=C/c1ccccc1O (stereo unspecified)

photoluminescence quantum yield (in ClCCl): 0.15
Structure (SMILES): CCCCN(CCCC)c1ccc2c(c1)C#CC#Cc1cc(N(CCCC)CCCC)ccc1C#Cc1cc(c3cc1C#Cc1ccc(C(F)(F)F)cc1C#CC#Cc1cc(C(F)(F)F)ccc1C#C3)C#C2

photoluminescence quantum yield (in CC#N): 0.015
Structure (SMILES): COc1ccc(-c2csc(/C(C#N)=C/c3ccc(C(F)(F)F)cc3)n2)cc1
